pIC50: −log10 of the molar value. Activity calls are given as the source filed them. The calls are words filed in the database; no cut-off is given here.
Molecular target: Procathepsin L (Homo sapiens, UniProt P07711)
Test: Inhibition of human cathepsin L

Row | Compound | pIC50 | Activity
1 | CCc1ccccc1NC(=O)CSC(=O)NNC(=O)CCc1c[nH]c2ccccc12 | 4.66 | –
2 | CCc1ccccc1NC(=O)CSC(=O)NNC(=O)CNC(=O)OC(C)(C)C | – | inactive
3 | CCc1ccccc1NC(=O)CSC(=O)NNC(=O)[C@H](Cc1ccccc1)NC(=O)OC(C)(C)C | 6.94 | –
4 | COC(=O)CSC(=O)NNC(=O)[C@H](Cc1c[nH]c2ccccc12)NC(=O)OC(C)(C)C | 6.70 | –
5 | CC(C)(C)OC(=O)N[C@@H](Cc1c[nH]c2ccccc12)C(=O)NNC(=O)NCC(=O)N1CCCc2ccccc21 | 5.52 | –
6 | CC(C)(C)OC(=O)N[C@@H](Cc1c[nH]c2ccccc12)C(=O)NNC(=O)SCC(=O)N1CCCc2ccccc21 | 7.39 | –
7 | CC(C)(C)OC(=O)N[C@@H](Cc1c[nH]c2ccccc12)C(=O)NNC(=O)CCC(=O)N1CCCc2ccccc21 | – | inactive
8 | CC(C)(C)OC(=O)N[C@@H](Cc1c[nH]c2ccccc12)C(=O)NNC(=O)SC1CCN(c2ccccc2)C1=O (some centres undefined) | 6.96 | –
9 | CC(C)(C)OC(=O)N[C@@H](Cc1c[nH]c2ccccc12)C(=O)NNC(=O)OCC(=O)N1CCCc2ccccc21 | 8.15 | –

From ChEMBL document CHEMBL1145569, “Design, synthesis, and evaluation of inhibitors of cathepsin L: Exploiting a unique thiocarbazate chemotype” (Bioorg Med Chem Lett, 2008)
